Measured values: patent publication US12343319B2, “Compositions and methods for treatment of diseases and disorders” (Atai Therapeutics Inc., priority 2023, dated 2025)

Tests used:
5-HT2A receptor [1] = target: T1, 5-HT2A receptor (Mus musculus, UniProt P35363); set-up: endogenous in cells; host or cells: adult male C57BL/6J mice, in vivo; conditions: i.p., same assay, Klein et al., 2021; cited from earlier work
5-HT2A receptor [2] = target: T1, 5-HT2A receptor; test: 5-HT2A receptor binding in mouse frontal cortical tissue; conditions: for Ki: Mean (Mouse), mouse frontal cortical tissue
[3] = target: T2, 5-HT2A receptors in the mouse frontal cortex (Mus musculus, UniProt P35363); test: Ex vivo 5-HT2A receptor occupancy ([3H]cimbi-36) in mouse frontal cortex; conditions: mouse, 3 mg/kg IP, 15 minutes post dosing
T2 construct: Left frontal cortices from each animal were homogenized individually; from tissue

Male Sprague-Dawley rats [4] = test: 5-HT2A/2C/1A-mediated behaviors, locomotor activity and body temperature in rats; assay type: in vivo, rat; conditions: 1 mg/kg SC
Method: Forty (40) male Sprague-Dawley rats were used as test subjects in this study. Animals were dosed with vehicle (IP), one of 3 doses of compound 2-2 (3 mg/kg, 10 mg/kg, 30 mg/kg IP) or psilocybin (1 mg/kg SC) and, following the appropriate pre-treatment time, were placed in locomotor activity boxes and continuously monitored for a 1 hr period with data collected into 10-minute time bins. Animals were visually assed for overt behavioral signs, including biomarkers for 5-HT2A receptor target engagement (i.e. wet dog shakes, back muscle contractions and stereotypic behaviors), 5-HT2C receptor activation (yawning, penile grooming), and 5-HT1A behaviors (forepaw treading, hindlimb abduction). Additional behavioral and somatic signs characteristic of 5-HT syndrome (i.e. tremor, salivation, flat body posture) also were measured. Core body temperature change was determined at 0 hr (pre-dose), 1 hr, and 2 hr. Simultaneously, the spontaneous locomotor activity of the rats was measured using automated Med Associates activity test chambers. Activity data collected included total distance travelled, rearing counts, and ambulatory episodes. LMA was measured for a total of 2 hours (i.e. the first hour to include visual assessments of behavioral signs, and the second hour the animals will not be assessed for behavioral signs) with data collected into 10 minute time bins. The tracking arena measured 17″ W×17″ L×12″ H, sensor bars were secured 1″ above the floor to track distance travelled, and a second set of sensor bars were placed ˜5″ above the floor to measure vertical movement and rearing activity. The parameters set on the tracking software were as follows: resolution −50 ms, box size −4 beams, resting delay −500 ms, and ambulatory trigger −3.
Table 14 outlines receptor activity and related behavioral and/or physiological measures.

Male WKY rats = test: Sleep-wake behavior, EEG power, body temperature and locomotor activity in WKY rats; assay type: in vivo, rat; conditions: over 6 hours post dose, WKY rats, IP
Method: Male WKY rats (n=7, 289-388 g at the start of dosing) were housed in groups of 2-3 animals per cage with standard housing conditions. For implantation of the EEG electrodes and radio transmitter, the animals were anesthetized with isoflurane (2-5% in oxygen at 11/min) throughout the procedure. The scalp, neck and right flank were cleared of hair using clippers and cleaned using diluted Hibitane (chlorhexidine, 50% (v/v) in water). A non-steroidal anti-inflammatory agent was administered (carprofen 5 mg/kg, s.c.) and the animals placed on a homeothermic blanket (37° C.) with the head fixed in a stereotaxic frame. Incisions were made in the scalp and neck, as well as in the right flank. Blunt dissection of the abdominal muscle was then made to gain access to the peritoneal cavity. A radio transmitter (HD-S02, Data Sciences International) was implanted in the peritoneal cavity and secured to the muscle wall with non-absorbable sutures. The wires of the transmitter were passed using a 19G needle through the muscle wall and then sub-dermally to the scalp to act as Electroencephalogram (EEG)/Electromyograph (EMG) electrodes. The scalp was cleared of connective tissue and two craniotomies were made with a trepanning drill (fronto-parietal coordinates; Bregma+2 mm anterior, midline+1.0 mm lateral and Lambda 0 mm, +1.5 mm lateral). The positive EEG electrode was attached to the anterior craniotomy and the negative EEG electrode to the posterior craniotomy. Both electrodes were secured in place using a suitable adhesive agent (cyanoacrylate gel, RS components). A second set of electrodes were sutured into the nuchal muscle to act as EMG electrodes. All incisions were closed using absorbable suture.
All animals were allowed to recover in a warm environment and given 5 ml of saline subcutaneously (s.c.). Animals were kept singly in the cage until the next day, then pair housed for the duration of post-surgical recovery (minimum 7 days). During the recovery period, the rats received 5 days of standard post-operative care with no further experimental procedures until the pre-operative body weight was regained. The animals were maintained on a 12/12 hour light dark cycle (08:00 am lights on) after the surgery. Home cages and post-operative cages contained bedding and nesting material, along with environmental enrichment such as wooden chew-sticks and plastic tunnels.
On test days, ˜60 minutes after lights-on, animals were placed in recording boxes similar to their home-cages, except that environmental enrichment was restricted to a large bundle of nesting and bedding material, to avoid interference with the telemeter signals. Then, data acquisition was initiated for confirmation of signal quality. EEG and EMG data were acquired using intraperitoneal HD-S02 transmitters (DSI, New Brighton, MN) and Spike2 software (CED). EEG and EMG signals were digitized 500 samples/second, amplified 1000× and bandpass filtered at 0.5-100 Hertz (Hz). After 60 minutes of habituation, each animal was briefly removed from its box and dosed via the intraperitoneal (i.p.) route in a volume of 2 mL/kg. Test conditions included saline vehicle, psilocybin (10 mg/kg) positive control, compound 2-1 at 3, 10 and 30 mg/kg and compound 2-2 at 10, 17 and 30 mg/kg. Doses were based on the molecular weight of the free bases. compound 2-1 and compound 2-2 dosing solutions were prepared in 40% (w/v) hydroxypropyl-beta-cyclodextrin. After dosing, animals were immediately put back into the recording boxes, the experimenter left the room, and recordings continued uninterrupted for 23 hours. At the end of the recording session, the transmitters were turned off and the animals were returned to their home cages. All animals received all treatment conditions in a pseudo randomized cross-over fashion with a minimum washout period of 7 days between doses.
All data was aligned to zero (the time of dosing), with epochs defined as non-overlapping 10-second time segments. […]

Male Sprague-Dawley rats [5] = test: Rat forced swim test, immobility frequency; assay type: in vivo; conditions: 10 mg/kg, i.p., once 24 hours prior to the swim test
Method: Male Sprague-Dawley rats were placed individually in clear acrylic swim chambers (40 cm height×20.3 cm diameter) filled to 16 cm for a 15-minute pre-swim session on day 1 and filled to 30 cm for a 5-minute swim test session 24 hours later. Rats (n=10 per treatment group) were administered compound 2-1 (3, 10, 30 mg/kg, i.p., 1 mL/kg, based on weight of the free base) or vehicle (40% (w/v) 2-HPBCD in water, i.p.) at 23.5, 16 and 0.5 hours prior to the swim test. The rapid-acting antidepressant, ketamine (10 mg/kg, i.p.), was included in the study as a positive control condition and injected once 24 hours prior to the swim test.

[6] = system: primary cortical rat neurons; test: Synaptogenesis assay in primary cortical rat neurons; assay type: cell-based
Method: Pregnant rats for this study were purchased from a commercial breeder. Primary cortical neurons from E17/E18 rat pups were isolated and seeded in 96-well plates. Cells were treated with compound 2-2, FGF (Reference item) or vehicle. After incubation with the respective treatment, cortical neurons were stained for synapsin and tubulin using immunofluorescence.
Stained cells were imaged with the Cytation 5 Multimode reader. From each well, 9 images were taken at 10× magnification. Digital images from cortical neurons were analyzed for the following parameter using a software-supported automatic quantification method: Number of synapsin positive objects. Analysis was performed using Gen5 software. The experiment was run in n=10 technical replicates per condition. Vehicle control and FGF were included on each plate totaling n=20 technical replicates.
Primary cortical neurons were prepared from timed pregnant Spargue Dawley rats at E17/E18. Animals were sacrificed (see section 3.3.1) and embryos were dissected in Calcium and Magnesium free Hanks Balanced Salt Solution (CMF-HBSS) containing 15 mM HEPES and 10 mM NaHCO3, pH 7.2. Embryos were decapitated, skin and skull gently removed and hemispheres were separated. After removing meninges and brain stem, the cortices were isolated, chopped with a sterile razor blade in Chop solution (Hibernate-E without Calcium containing 2% B-27) and digested in 2 mg/mL papain (Worthington) dissolved in Hibernate-E without Calcium for 30 minutes (±5 min) at 30° C. The cortices of the embryos from the two rats were pooled and processed together.
Cortices were triturated for 10-15 times with a fire-polished silanized Pasteur pipette in Hibernate-E without Calcium containing 2% B-27, 0.01% DNaseI, 1 mg/mL BSA, and 1 mg/mL Ovomucoid Inhibitor. Undispersed pieces were allowed to settle by gravity for 3 min and the supernatant was centrifuged for 3 min at 228 g. […]
Cells were counted in a hemacytometer and seeded in nutrition medium on poly-D-lysine pre-coated 96-well plates at a density of 1.5×10^4 cells/well. […]

T1 sequence (P35363 whole entry): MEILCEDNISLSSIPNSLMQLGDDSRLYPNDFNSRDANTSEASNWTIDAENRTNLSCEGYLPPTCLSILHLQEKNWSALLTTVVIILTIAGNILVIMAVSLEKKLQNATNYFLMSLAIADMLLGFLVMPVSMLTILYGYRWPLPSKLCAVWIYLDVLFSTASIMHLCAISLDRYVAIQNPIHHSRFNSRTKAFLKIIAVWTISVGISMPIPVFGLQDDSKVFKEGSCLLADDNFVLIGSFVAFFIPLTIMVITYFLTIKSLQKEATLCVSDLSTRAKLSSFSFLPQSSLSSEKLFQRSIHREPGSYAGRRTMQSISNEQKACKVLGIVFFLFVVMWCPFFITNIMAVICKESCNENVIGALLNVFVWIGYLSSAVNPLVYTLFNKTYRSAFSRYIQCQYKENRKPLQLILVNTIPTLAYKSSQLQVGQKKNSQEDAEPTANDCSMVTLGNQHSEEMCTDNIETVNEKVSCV
T2 sequence (P35363 whole entry): as above

CN(C)CCc1c[nH]c2cccc(O)c12 [Psilocin, psilocin]
HTR ED50 (5-HT2A receptor [1]): 0.17 mg/kg
IC50 (5-HT2A receptor [2]): 0.099 µM
Ki (5-HT2A receptor [2]; Ki): 0.0451 µM
Ki (5-HT2A receptor [2]; pKi): 0.0457 µM

CN(C)CCc1c[nH]c2cccc(OP(=O)(O)O)c12 [Psilocybin, psilocybin, reference compound]
receptor occupancy at 3 mg/kg ([3]; read-out: % Receptor Occupancy (RO)): 19%
remaining activity at 3 mg/kg ([3]; read-out: % of Control Binding): 81%
distance travelled during the first 20 minutes of the 2 hour test (Male Sprague-Dawley rats [4]): decreased
total locomotor activity measures (Male Sprague-Dawley rats [4]): did not affect
body temperature (Male WKY rats): ↓(for 6 h)

CNC1(c2ccccc2Cl)CCCCC1=O (stereo not drawn) [Ketamine, ketamine, reference compound]
immobility compared to vehicle (Male Sprague-Dawley rats [5]): significantly decreased

CN(C)CCc1c[nH]c2ccccc12 [N,N-DMT]
synaptogenesis compared to VC (synapsin positive objects normalized to tubulin III area) ([6]; 1 μM (highest concentration), DIV1-DIV10): significant increase
synaptogenesis compared to VC (synapsin positive objects normalized to tubulin III area) ([6]; lower concentrations (below 1 μM)): no significance
